Consider one compound from US20250114337A1, “METHODS FOR VASCULAR REGENERATION AND WOUND TREATMENT” (THE METHODIST HOSPITAL, priority 2022, published 2025).

Assay [1] has as its system ischemic hindlimb mice model. As to the kind of experiment: hindlimb ischemia recovery in WT C57BL/6 mice, laser doppler imaging. Format: in vivo, mouse. The settings on record: OSMI4 10 mg/kg 0, 1, 2 days post-surgery; younger mice (8 to 12 weeks). As to the method:
O-GlcNAcylation manipulations regulated recovery from tissue ischemia. To determine if the change in O-GlcNAcylation can modulate limb ischemia recovery, and contributes to vascular recovery, WT C57BL/6 mice were treated with the O-GlcNAcylation inhibitor, OSMI4, or O-GlcNAcylation enhancer, TMG 0, 1, 2 days post-surgery. Age is an important factor that determines recovery, and younger mice are known to have a more robust angiogenic response as compared with older mice. Accordingly, younger mice (between 8 to 12 weeks) were used to assess the impairment of angiogenesis by OSMI (which reduces O-GlcNAcylation). Older mice (around 20 weeks) were used to assess the enhancement of angiogenesis by TMG (which increases O-GlcNAcylation). […] It will be determined whether this beneficial effect is mediated by increased DNA accessibility and enhanced transdifferentiation.
To determine if O-GlcNAcylation manipulations can modulate the overall effect of vascular recovery from limb ischemia. WT C57BL/6 mice were treated with the O-GlcNAcylation inhibitor. OSMI4 (10 mg/kg), or O-GlcNAcylation enhancer. TMG (10 mg/kg) 0, 1, 2 days post-surgery (FIG. 19A).

For assay [2], the system named is ischemic hindlimb model. As to the kind of experiment: ischemic hindlimb model in fibroblast lineage tracing Fsp1-Cre: R26R-EYFP mice. Format: in vivo, mouse. The settings on record: 7 days post-surgery. As to the method:
Using established transdifferentiation protocol and metabolomics profiling to assess the global metabolic changes during transdifferentiation. […] To determine the role of this metabolite in transdifferentiation, the effect of Thiamet G was assessed, an inhibitor of OGA, which enhances O-GlcNAcylation. Thiamet G increased transdifferentiation efficiency in vitro. In a fibroblast lineage tracing mice, Fsp1-Cre: R26R-EYFP mice, Thiamet G increased tissue O-glycnacylation, increased capillary density and limb perfusion, and increased the number of fibroblasts transdifferentiating into endothelial cells (i.e. FSP+CD31+ cell) in an ischemic hindlimb model.
Angiogenic transdifferentiation in limb ischemia. A fibroblast lineage tracing mouse model (Fsp1-Cre: R26R-EYFP) was used to detect transdifferentiation in vivo in a murine model of limb ischemia (Meng, S., et al., Circulation, 2020. 142 (17): p. 1647-1662). […] This population is abolished when the mice are treated with anti-inflammatory drugs, such as dexamethasone. Intriguingly, the disappearance of these cells is associated with a reduction in perfusion recovery and worsening clinical scores. Similar results are achieved when inflammatory signaling is impaired, as in Fsp1-Cre: Rela flox/flox mice. In these animals, NFκB signaling is blocked in the Fsp1+fibroblasts, associated with a dramatic reduction in transdifferentiated fibroblasts (i.e. YFP+CD144+ cells), and impaired perfusion (Meng. S., et al., Circulation, 2020. 142 (17): p. 1647-1662). […] Cluster 8 produced angiogenic cytokines, whereas Cluster 5 expressed genes associated with EC identity (i.e CD144). But only Cluster 5 could generate EC-like networks in Matrigel whereas other fibroblasts, including Cluster 8 fibroblasts, formed nodal structures typical of fibroblasts in Matrigel. The data support the idea that transdifferentiation may occur in vivo with tissue ischemia, and is dependent on inflammatory signaling. This model can be used to study the contribution of O-GlcNAcylation in transdifferentiation and limb ischemia recovery in vivo. A similar lineage tracing approach can be used with tamoxifen-inducible Col1A2-Cre/ERT: R26R-tdTomato mouse strain to study the contribution of O-GlcNAcylation in transdifferentiation and limb ischemia recovery in vivo.
To determine if O-GlcNAcylation enhances revascularization through transdifferentiation, fibroblasts lineage tracing Fsp1-Cre: R26R-EYFP mice strain were utilized where it was previously observed the in situ transdifferentiation phenomenon (FIG. 20A). In this model, all the fibroblasts expressing Fsp1 (fibroblast-specific protein1) are marked with YFP. With this model, a significant increase in the FSP-expressing cell progeny in the ischemic limb was identified compared with the sham-operated limb 3 days after the femoral artery ligation was perform (FIG. 20A) and compare the YFP+ cells over the different time points (FIG. 20A). The percentage of the YFP+CD31+CD11b-cell population which is considered the transdifferentiation population was analyzed further. […] To determine the role of the O-GlcNAcylation on the transdifferentiation, the Fsp1-Cre: R26R-EYFP mice that are undergoing vascular recovery with OSMI were treated, and the transdifferentiation population in the limb muscle tissue 7 days post-surgery was analyzed.

The structures appear in SMILES notation. Entries after “also recorded” stand apart in the source; their conditions may differ.

For `CCOC(=O)CN(Cc1cccs1)C(=O)[C@H](NS(=O)(=O)c1cc2ccc(=O)[nH]c2cc1Cl)c1ccccc1OC` [OSMI], in assay [1], the “recovery of blood flow post femoral artery ligation (revascularization)” value is recorded as “impaired recovery; also recorded: impairs”. In assay [2], the “transdifferentiation population (YFP+CD31+CD11b-) in limb muscle tissue” value is on record as “significantly reduced”.
